Test results from ChEMBL document CHEMBL4330129 (Bioorg Med Chem, 2019).
Values after ≈ are worked out from the molar mass of the structure shown.

test system: not listed separately; assay: Binding affinity to FLAG/His-tagged Keap1 (unknown origin)/biotinylated full-length FLAG/His/Tev/Avi-tagged Cul3 (unknown origin) expressed in baculovirus infected Sf9 insect cells measured after 1 hr by TR-FRET assay; parameters: species or system Homo sapiens; details: not given

SMILES | pIC50
CC(C)(C)OC(=O)N1CCC(SC(=S)NCCCCNC(=O)Nc2ccncc2)CC1 | 4.6
CN(C)CCCS(=O)(=O)CCCCN=C=S | < 4
COC(=O)[C@H](CSC(=S)NCCCC[S+](C)[O-])NC(C)=O (stereo partly specified) | < 4
CN1CCC(SC(=S)NCCCCNC(=O)NCc2ccccc2)CC1 | 4.9
O=C(NCCCN=C=S)OCc1ccccc1 | 5
CC(C)(C)OC(=O)N1CCC(SC(=S)NCCCCNC(=O)Nc2ccc3nccnc3c2)CC1 | 4.8
C[S+]([O-])CCCCNC(=S)SC1CCNCC1.O=C(O)C(F)(F)F (stereo unspecified) | < 4
CC(=O)N(C)CC[S+]([O-])CCCCN=C=S (stereo unspecified) | < 4
CC(C)(C)OC(=O)N1CCC(SC(=S)NCCCCNC(=O)OCc2ccccn2)CC1 | < 4
Cn1cc(CCN=C=S)c2ccccc21 | 5.2
O=C(NCCCCN=C=S)NCc1ccccc1 | 4.7
CN1CCC(SC(=S)NCCCCNC(=O)OCc2ccccn2)CC1 | 4.6
CN1CCC(SC(=S)NCCCCNC(=O)NC2CCCC2)CC1 | 4.5
CC(=O)N(C)CCS(=O)(=O)CCCCN=C=S | < 4
CN1CCC(SC(=S)NCCCC[S+](C)[O-])CC1 (stereo unspecified) | < 4
O=S1(=O)CCC(CN=C=S)C1 (stereo unspecified) | 4.4
O=C(NCCCCN=C=S)Nc1ccc2nccnc2c1 | 5.1
O=C(CCc1ccccc1)NCCCCN=C=S | 4.4
O=C(CC1CCCCC1)NCCCCN=C=S | 4.8
CS(=O)(=O)N1CCC(CN=C=S)C1 (stereo unspecified) | 4.1
O=C(NCCCCN=C=S)OCc1ccccc1Cl | 5.2
O=C(NCCCCN=C=S)NC1CCCC1 | 4.4
CN1CCC(SC(=S)NCCCCNC(=O)Nc2cccnc2)CC1 | 4.7
O=C(CCCCN=C=S)NCc1ccccc1 | 4.7
[O-][S+](CCCCN=C=S)c1ccncc1 (stereo unspecified) | 4.4
CN1CCC(SC(=S)NCCCCNC(=O)Nc2ccc3c(c2)OCCO3)CC1 | 5
O=S1(=O)CCN(CCN=C=S)CC1 | < 4
O=S(=O)(CC1(N2CCC(CN=C=S)CC2)COC1)c1ccccc1 | 4.7
CN1CCC(SC(=S)NCCCCNC(=O)Nc2ccc3c(c2)OCO3)CC1 | 5.1

molecular target: Keap1/Nrf2 (Homo sapiens, UniProt Q14145+Q16236); assay: Binding affinity to FLAG/His-tagged Keap1 (unknown origin)/biotinylated full-length FLAG/His/Tev/Avi-tagged NRF2 (unknown origin) expressed in baculovirus infected Sf9 insect cells measured after 1 hr by TR-FRET assay; details: not given
Sequence (Q16236 whole entry): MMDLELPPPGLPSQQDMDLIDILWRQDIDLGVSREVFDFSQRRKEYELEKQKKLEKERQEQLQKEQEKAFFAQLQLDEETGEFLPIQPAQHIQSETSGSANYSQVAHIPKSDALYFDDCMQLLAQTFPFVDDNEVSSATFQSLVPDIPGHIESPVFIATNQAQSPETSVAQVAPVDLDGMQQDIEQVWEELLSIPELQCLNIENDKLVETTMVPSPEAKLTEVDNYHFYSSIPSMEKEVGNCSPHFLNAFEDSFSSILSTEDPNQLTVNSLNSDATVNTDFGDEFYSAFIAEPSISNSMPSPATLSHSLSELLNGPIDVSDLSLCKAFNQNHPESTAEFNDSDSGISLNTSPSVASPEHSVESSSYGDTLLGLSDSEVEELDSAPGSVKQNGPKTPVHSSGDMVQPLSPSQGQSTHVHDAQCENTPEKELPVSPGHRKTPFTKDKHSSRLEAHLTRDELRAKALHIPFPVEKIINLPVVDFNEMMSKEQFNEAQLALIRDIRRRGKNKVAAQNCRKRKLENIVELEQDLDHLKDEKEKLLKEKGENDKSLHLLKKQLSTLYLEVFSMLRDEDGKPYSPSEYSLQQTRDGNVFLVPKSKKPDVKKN
Sequence (Q14145 whole entry): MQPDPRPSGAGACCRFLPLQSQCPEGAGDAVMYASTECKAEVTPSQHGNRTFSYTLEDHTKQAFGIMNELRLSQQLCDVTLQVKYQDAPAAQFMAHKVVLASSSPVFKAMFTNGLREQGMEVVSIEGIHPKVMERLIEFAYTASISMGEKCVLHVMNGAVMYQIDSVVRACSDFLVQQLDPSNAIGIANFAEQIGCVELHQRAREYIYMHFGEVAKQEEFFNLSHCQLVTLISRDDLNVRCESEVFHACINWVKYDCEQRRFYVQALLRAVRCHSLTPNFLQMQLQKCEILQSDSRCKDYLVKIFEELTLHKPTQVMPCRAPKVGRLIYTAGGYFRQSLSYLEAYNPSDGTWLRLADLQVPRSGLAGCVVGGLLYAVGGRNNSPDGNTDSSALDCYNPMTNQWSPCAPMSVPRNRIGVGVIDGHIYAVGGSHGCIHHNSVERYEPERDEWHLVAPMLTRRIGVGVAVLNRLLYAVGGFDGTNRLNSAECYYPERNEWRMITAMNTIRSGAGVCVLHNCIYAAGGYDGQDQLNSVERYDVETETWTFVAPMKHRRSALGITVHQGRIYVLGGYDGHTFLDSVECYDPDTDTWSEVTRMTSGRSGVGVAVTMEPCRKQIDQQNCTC

IC50 [µM] | SMILES
31.6 | CC(C)(C)OC(=O)N1CCC(SC(=S)NCCCCNC(=O)Nc2ccncc2)CC1
> 100 | CN(C)CCCS(=O)(=O)CCCCN=C=S
> 100 | COC(=O)[C@H](CSC(=S)NCCCC[S+](C)[O-])NC(C)=O (stereo partly specified)
20 | CN1CCC(SC(=S)NCCCCNC(=O)NCc2ccccc2)CC1
5.01 | O=C(NCCCN=C=S)OCc1ccccc1
15.8 | CC(C)(C)OC(=O)N1CCC(SC(=S)NCCCCNC(=O)Nc2ccc3nccnc3c2)CC1
> 100 | C[S+]([O-])CCCCNC(=S)SC1CCNCC1.O=C(O)C(F)(F)F (stereo unspecified)
> 100 | CC(=O)N(C)CC[S+]([O-])CCCCN=C=S (stereo unspecified)
> 100 | CC(C)(C)OC(=O)N1CCC(SC(=S)NCCCCNC(=O)OCc2ccccn2)CC1
10 | Cn1cc(CCN=C=S)c2ccccc21
15.8 | O=C(NCCCCN=C=S)NCc1ccccc1
39.8 | CN1CCC(SC(=S)NCCCCNC(=O)OCc2ccccn2)CC1
39.8 | CN1CCC(SC(=S)NCCCCNC(=O)NC2CCCC2)CC1
> 100 | CC(=O)N(C)CCS(=O)(=O)CCCCN=C=S
> 100 | CN1CCC(SC(=S)NCCCC[S+](C)[O-])CC1 (stereo unspecified)
> 100 | O=S1(=O)CCC(CN=C=S)C1 (stereo unspecified)
15.8 | O=C(NCCCCN=C=S)Nc1ccc2nccnc2c1
25.1 | O=C(CCc1ccccc1)NCCCCN=C=S
25.1 | O=C(CC1CCCCC1)NCCCCN=C=S
> 100 | CS(=O)(=O)N1CCC(CN=C=S)C1 (stereo unspecified)
5.01 | O=C(NCCCCN=C=S)OCc1ccccc1Cl
50.1 | O=C(NCCCCN=C=S)NC1CCCC1
39.8 | CN1CCC(SC(=S)NCCCCNC(=O)Nc2cccnc2)CC1
20 | O=C(CCCCN=C=S)NCc1ccccc1
15.8 to 25.1 | [O-][S+](CCCCN=C=S)c1ccncc1 (stereo unspecified)
12.6 | CN1CCC(SC(=S)NCCCCNC(=O)Nc2ccc3c(c2)OCCO3)CC1
> 100 | O=S1(=O)CCN(CCN=C=S)CC1
39.8 | O=S(=O)(CC1(N2CCC(CN=C=S)CC2)COC1)c1ccccc1
20 | CN1CCC(SC(=S)NCCCCNC(=O)Nc2ccc3c(c2)OCO3)CC1

species: Homo sapiens; assay: Activation of Keap1/Cul3/Nrf2 in NHBE cells assessed as induction of HO-1 gene expression at 10 uM after 24 hrs by RT-PCR analysis relative to SFN; assay type: cell-based; details: not given

SMILES | fold change (FC)
CC(C)(C)OC(=O)N1CCC(SC(=S)NCCCCNC(=O)Nc2ccncc2)CC1 | 20.7
CN(C)CCCS(=O)(=O)CCCCN=C=S | 0.34
COC(=O)[C@H](CSC(=S)NCCCC[S+](C)[O-])NC(C)=O (stereo partly specified) | 0.85
CN1CCC(SC(=S)NCCCCNC(=O)NCc2ccccc2)CC1 | 14.5
O=C(NCCCN=C=S)OCc1ccccc1 | 32.2
CC(C)(C)OC(=O)N1CCC(SC(=S)NCCCCNC(=O)Nc2ccc3nccnc3c2)CC1 | 100
C[S+]([O-])CCCCNC(=S)SC1CCNCC1.O=C(O)C(F)(F)F (stereo unspecified) | 0.34
CC(=O)N(C)CC[S+]([O-])CCCCN=C=S (stereo unspecified) | 0.29
CC(C)(C)OC(=O)N1CCC(SC(=S)NCCCCNC(=O)OCc2ccccn2)CC1 | 1.47
Cn1cc(CCN=C=S)c2ccccc21 | 0.04
O=C(NCCCCN=C=S)NCc1ccccc1 | 6.42
CN1CCC(SC(=S)NCCCCNC(=O)OCc2ccccn2)CC1 | 11.4
CN1CCC(SC(=S)NCCCCNC(=O)NC2CCCC2)CC1 | 19.3
CC(=O)N(C)CCS(=O)(=O)CCCCN=C=S | 0.29
CN1CCC(SC(=S)NCCCC[S+](C)[O-])CC1 (stereo unspecified) | 0.93
O=S1(=O)CCC(CN=C=S)C1 (stereo unspecified) | 0.37
O=C(NCCCCN=C=S)Nc1ccc2nccnc2c1 | 13.2
O=C(CCc1ccccc1)NCCCCN=C=S | 9.84
O=C(CC1CCCCC1)NCCCCN=C=S | 11.5
CS(=O)(=O)N1CCC(CN=C=S)C1 (stereo unspecified) | 0.68
O=C(NCCCCN=C=S)OCc1ccccc1Cl | 3.21
O=C(NCCCCN=C=S)NC1CCCC1 | 2.66
CN1CCC(SC(=S)NCCCCNC(=O)Nc2cccnc2)CC1 | 16
O=C(CCCCN=C=S)NCc1ccccc1 | 28
[O-][S+](CCCCN=C=S)c1ccncc1 (stereo unspecified) | 15.8 to 15.9
CN1CCC(SC(=S)NCCCCNC(=O)Nc2ccc3c(c2)OCCO3)CC1 | 23.6
O=S1(=O)CCN(CCN=C=S)CC1 | 0.19
O=S(=O)(CC1(N2CCC(CN=C=S)CC2)COC1)c1ccccc1 | 2.98
CN1CCC(SC(=S)NCCCCNC(=O)Nc2ccc3c(c2)OCO3)CC1 | 25.1

test system: not listed separately; assay: Kinetic solubility of the compound at pH 7.4 by CLND method; assay type: physicochemical; details: buffer, read-out: Kinetic_solubility

solubility kinetic [µM] | SMILES
85 (≈ 39.8 µg/mL) | CC(C)(C)OC(=O)N1CCC(SC(=S)NCCCCNC(=O)Nc2ccncc2)CC1
210 (≈ 55.5 µg/mL) | CN(C)CCCS(=O)(=O)CCCCN=C=S
≥ 510 | COC(=O)[C@H](CSC(=S)NCCCC[S+](C)[O-])NC(C)=O (stereo partly specified)
≥ 451 | CN1CCC(SC(=S)NCCCCNC(=O)NCc2ccccc2)CC1
42 (≈ 21.8 µg/mL) | CC(C)(C)OC(=O)N1CCC(SC(=S)NCCCCNC(=O)Nc2ccc3nccnc3c2)CC1
255 | C[S+]([O-])CCCCNC(=S)SC1CCNCC1.O=C(O)C(F)(F)F (stereo unspecified)
≥ 110 | CC(=O)N(C)CC[S+]([O-])CCCCN=C=S (stereo unspecified)
80 (≈ 38.6 µg/mL) | CC(C)(C)OC(=O)N1CCC(SC(=S)NCCCCNC(=O)OCc2ccccn2)CC1
38 (≈ 8.22 µg/mL) | Cn1cc(CCN=C=S)c2ccccc21
247 (≈ 65.1 µg/mL) | O=C(NCCCCN=C=S)NCc1ccccc1
≥ 385 | CN1CCC(SC(=S)NCCCCNC(=O)OCc2ccccn2)CC1
≥ 245 | CN1CCC(SC(=S)NCCCCNC(=O)NC2CCCC2)CC1
≥ 340 | CC(=O)N(C)CCS(=O)(=O)CCCCN=C=S
≥ 536 | CN1CCC(SC(=S)NCCCC[S+](C)[O-])CC1 (stereo unspecified)
≥ 639 | O=S1(=O)CCC(CN=C=S)C1 (stereo unspecified)
≥ 356 | O=C(NCCCCN=C=S)Nc1ccc2nccnc2c1
337 (≈ 88.4 µg/mL) | O=C(CCc1ccccc1)NCCCCN=C=S
≥ 413 | O=C(CC1CCCCC1)NCCCCN=C=S
≥ 451 | CS(=O)(=O)N1CCC(CN=C=S)C1 (stereo unspecified)
73 (≈ 21.8 µg/mL) | O=C(NCCCCN=C=S)OCc1ccccc1Cl
419 (≈ 101 µg/mL) | O=C(NCCCCN=C=S)NC1CCCC1
≥ 345 | CN1CCC(SC(=S)NCCCCNC(=O)Nc2cccnc2)CC1
≥ 418 | O=C(CCCCN=C=S)NCc1ccccc1
201 to 224 (≈ 48.3 to 53.8 µg/mL) | [O-][S+](CCCCN=C=S)c1ccncc1 (stereo unspecified)
≥ 274 | O=S1(=O)CCN(CCN=C=S)CC1
341 (≈ 125 µg/mL) | O=S(=O)(CC1(N2CCC(CN=C=S)CC2)COC1)c1ccccc1
≥ 358 | CN1CCC(SC(=S)NCCCCNC(=O)Nc2ccc3c(c2)OCO3)CC1

test system: not listed separately; assay: Lipophilicity, log D of the compound at pH 7.4 by chromatographic method; assay type: physicochemical; details: buffer

chromatographic logD | SMILES
4.58 | CC(C)(C)OC(=O)N1CCC(SC(=S)NCCCCNC(=O)Nc2ccncc2)CC1
1.55 | CN(C)CCCS(=O)(=O)CCCCN=C=S
1.04 | COC(=O)[C@H](CSC(=S)NCCCC[S+](C)[O-])NC(C)=O (stereo partly specified)
2.4 | CN1CCC(SC(=S)NCCCCNC(=O)NCc2ccccc2)CC1
5.02 | CC(C)(C)OC(=O)N1CCC(SC(=S)NCCCCNC(=O)Nc2ccc3nccnc3c2)CC1
0.22 | C[S+]([O-])CCCCNC(=S)SC1CCNCC1.O=C(O)C(F)(F)F (stereo unspecified)
1.51 | CC(=O)N(C)CC[S+]([O-])CCCCN=C=S (stereo unspecified)
5.67 | CC(C)(C)OC(=O)N1CCC(SC(=S)NCCCCNC(=O)OCc2ccccn2)CC1
7.23 | Cn1cc(CCN=C=S)c2ccccc21
4.29 | O=C(NCCCCN=C=S)NCc1ccccc1
1.83 | CN1CCC(SC(=S)NCCCCNC(=O)OCc2ccccn2)CC1
2.33 | CN1CCC(SC(=S)NCCCCNC(=O)NC2CCCC2)CC1
2.4 | CC(=O)N(C)CCS(=O)(=O)CCCCN=C=S
0.81 | CN1CCC(SC(=S)NCCCC[S+](C)[O-])CC1 (stereo unspecified)
1.82 | O=S1(=O)CCC(CN=C=S)C1 (stereo unspecified)
3.13 | O=C(NCCCCN=C=S)Nc1ccc2nccnc2c1
2.59 | O=C(CCc1ccccc1)NCCCCN=C=S
3.22 | CS(=O)(=O)N1CCC(CN=C=S)C1 (stereo unspecified)
6.35 | O=C(NCCCCN=C=S)OCc1ccccc1Cl
4.1 | O=C(NCCCCN=C=S)NC1CCCC1
1.11 | CN1CCC(SC(=S)NCCCCNC(=O)Nc2cccnc2)CC1
4.59 | O=C(CCCCN=C=S)NCc1ccccc1
2.34 to 3.5 | [O-][S+](CCCCN=C=S)c1ccncc1 (stereo unspecified)
2.24 | CN1CCC(SC(=S)NCCCCNC(=O)Nc2ccc3c(c2)OCCO3)CC1
2.33 | O=S1(=O)CCN(CCN=C=S)CC1
5.41 | O=S(=O)(CC1(N2CCC(CN=C=S)CC2)COC1)c1ccccc1
2.46 | CN1CCC(SC(=S)NCCCCNC(=O)Nc2ccc3c(c2)OCO3)CC1
